According to US20070155746A1, “NOVEL SUBSTITUTED PYRIDINYLOXY AND PYRIMIDINYLOXY AMIDES USEFUL AS INHIBITORS OF PROTEIN KINASES” (KALYPSYS, INC., priority 2005, published 2007):

Experiments:
Format in all cases: biochemical
VEGFR2 kinase = molecular target: T1, VEGFR2 kinase (Homo sapiens, UniProt P35968); assay: In vitro VEGFR2 kinase assay
T1 construct: purchased Invitrogen Inc PV3660
Procedure: (§1) In Vitro VEGFR2 and PDGFRP Kinase Assays
(§2) 2.5 μl of ADP Quest assay buffer (DiscoverX Inc., cat. #90-0071) containing 20 ng VEGFR2 kinase (Invitrogen Inc, cat. #PV3660) or 25 ng PDGFRβ kinase (Invitrogen Inc., cat. #P3082) is dispensed to wells of a 1536 multi-well, black solid plate. 60 nl of 100× concentration of test compound in DMSO is dispensed to the well by passive pin transfer and incubated for 10 minutes at room temperature (approx. 22° C.). 2.5 μl of ADP Quest assay buffer containing 0.25 μg of poly Glu:Tyr (4:1) substrate peptide (Upstate Inc., cat. #12-440) and 60 μM ATP is then dispensed and the kinase reaction allowed to incubate at 30° C. for 2 hours. The assay plates are sealed and maintained in a humidified environment. After the 2 hour incubation, 2 μl of ADP Quest assay reagent A, followed by 2 μl of assay reagent B, is added. After an additional 30 minute incubation at room temperature, fluorescence intensity is measured on a Molecular Devices Aquest multi-mode plate reader or other suitable plate reader (fluorescence excitation filter: 530/25 [Peak(nm)/FWHM passband(nm)]; dichroic beamsplitter: 561 nm longpass; fluorescence emission filter: 580/10 [Peak(nm)/FWHM passband(nm)]. The assay measures the conversion of a non-fluoresecent molecule to fluorescent resorufin, which correlates with kinase activity. Negative control activity is measured with DMSO lacking any test compound. The positive control is [N-(3-trifluoromethyl-4-chlorophenyl)-N′-(4-(2-methylcarbamoyl-pyridin-4-yl)oxyphenyl)urea], aka Bay 43-9006. Efficacy is measured as a percentage of positive control activity.

[1] = molecular target: T2, human B-Raf protein kinase (Homo sapiens, UniProt P15056); assay: In vitro B-Raf/Mek1 composite kinase assay
T2 construct: GST (N); purchased Upstate Inc. 14-530 (B-Raf); 14-420 (Mek1)
Procedure: In Vitro B-Raf/Mek1 Composite Kinase Assay
2.5 μl of B-Raf kinase buffer (20 mM MOPS [pH 7.2], 25 mM sodium glycerophosphate, 2 mM EGTA [pH 8.0], 1 mM sodium orthovanadate, 1 mM dithiothreitol, 10 mM MgCl2, 0.03% Brij-35, 0.3 mg/ml bovine serum albumin) containing lng of recombinant, N-terminal GST-tagged human B-Raf protein kinase (Δ1-415, Upstate Inc., cat. #14-530) is dispensed to wells of a 1536 multi-well white solid plate. 60 nl of 100× concentration of test compound in DMSO is dispensed to the well by passive pin transfer and incubated for 15 minutes at room temperature (approx. 22° C.). […] The assay plates are sealed and maintained in a humidified environment. After 2 hours, 2.5 μl of PKLight protein kinase assay reagent (Cambrex, cat. #LT07-501) is dispensed. After an additional 5 minute incubation at room temperature, luminescence activity is measured on a Molecular Devices Analyst multi-mode plate reader or other suitable plate reader. Kinase inhibition results in less ATP depletion, and therefore increased luminescence signal. Negative control activity is measured with DMSO lacking any test compound. The positive control is [N-(3-trifluoromethyl-4-chlorophenyl)-N′-(4-(2-methylcarbamoyl-pyridin-4-yl)oxyphenyl)urea], aka Bay 43-9006. Efficacy is measured as a percentage of positive control activity.

PDGFRβ kinase = molecular target: T3, PDGFRβ kinase (Homo sapiens, UniProt P09619); assay: In vitro PDGFRβ kinase assay
T3 construct: purchased Invitrogen Inc. P3082
Procedure: as §1, §2

T3 sequence (P09619 33-1106): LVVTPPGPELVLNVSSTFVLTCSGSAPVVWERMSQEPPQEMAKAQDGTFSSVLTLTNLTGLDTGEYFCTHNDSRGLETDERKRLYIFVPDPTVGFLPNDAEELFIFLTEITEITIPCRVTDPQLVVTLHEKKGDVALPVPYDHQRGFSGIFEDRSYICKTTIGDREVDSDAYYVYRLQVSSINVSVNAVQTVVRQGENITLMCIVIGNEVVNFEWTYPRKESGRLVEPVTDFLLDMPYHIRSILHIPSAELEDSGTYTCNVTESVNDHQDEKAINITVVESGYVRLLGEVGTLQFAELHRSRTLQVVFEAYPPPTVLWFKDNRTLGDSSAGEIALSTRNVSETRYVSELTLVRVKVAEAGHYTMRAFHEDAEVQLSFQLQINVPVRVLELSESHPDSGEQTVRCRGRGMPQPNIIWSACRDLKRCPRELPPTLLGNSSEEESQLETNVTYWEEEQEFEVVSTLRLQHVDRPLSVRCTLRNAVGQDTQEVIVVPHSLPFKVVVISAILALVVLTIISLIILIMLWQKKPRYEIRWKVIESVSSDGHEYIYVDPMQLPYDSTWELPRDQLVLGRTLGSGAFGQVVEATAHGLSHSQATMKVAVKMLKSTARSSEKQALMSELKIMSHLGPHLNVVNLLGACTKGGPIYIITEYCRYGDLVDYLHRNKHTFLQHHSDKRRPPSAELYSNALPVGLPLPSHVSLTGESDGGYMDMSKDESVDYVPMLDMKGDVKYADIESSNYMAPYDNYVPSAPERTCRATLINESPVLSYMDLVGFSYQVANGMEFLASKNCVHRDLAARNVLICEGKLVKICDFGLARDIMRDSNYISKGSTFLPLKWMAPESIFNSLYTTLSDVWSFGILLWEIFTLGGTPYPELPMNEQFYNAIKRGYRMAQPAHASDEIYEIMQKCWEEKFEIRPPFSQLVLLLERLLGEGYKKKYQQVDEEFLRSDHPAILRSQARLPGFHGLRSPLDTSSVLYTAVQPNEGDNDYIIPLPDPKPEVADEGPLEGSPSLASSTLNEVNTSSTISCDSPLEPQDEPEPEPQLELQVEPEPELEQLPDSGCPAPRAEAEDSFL
T1 sequence (P35968 20-1356): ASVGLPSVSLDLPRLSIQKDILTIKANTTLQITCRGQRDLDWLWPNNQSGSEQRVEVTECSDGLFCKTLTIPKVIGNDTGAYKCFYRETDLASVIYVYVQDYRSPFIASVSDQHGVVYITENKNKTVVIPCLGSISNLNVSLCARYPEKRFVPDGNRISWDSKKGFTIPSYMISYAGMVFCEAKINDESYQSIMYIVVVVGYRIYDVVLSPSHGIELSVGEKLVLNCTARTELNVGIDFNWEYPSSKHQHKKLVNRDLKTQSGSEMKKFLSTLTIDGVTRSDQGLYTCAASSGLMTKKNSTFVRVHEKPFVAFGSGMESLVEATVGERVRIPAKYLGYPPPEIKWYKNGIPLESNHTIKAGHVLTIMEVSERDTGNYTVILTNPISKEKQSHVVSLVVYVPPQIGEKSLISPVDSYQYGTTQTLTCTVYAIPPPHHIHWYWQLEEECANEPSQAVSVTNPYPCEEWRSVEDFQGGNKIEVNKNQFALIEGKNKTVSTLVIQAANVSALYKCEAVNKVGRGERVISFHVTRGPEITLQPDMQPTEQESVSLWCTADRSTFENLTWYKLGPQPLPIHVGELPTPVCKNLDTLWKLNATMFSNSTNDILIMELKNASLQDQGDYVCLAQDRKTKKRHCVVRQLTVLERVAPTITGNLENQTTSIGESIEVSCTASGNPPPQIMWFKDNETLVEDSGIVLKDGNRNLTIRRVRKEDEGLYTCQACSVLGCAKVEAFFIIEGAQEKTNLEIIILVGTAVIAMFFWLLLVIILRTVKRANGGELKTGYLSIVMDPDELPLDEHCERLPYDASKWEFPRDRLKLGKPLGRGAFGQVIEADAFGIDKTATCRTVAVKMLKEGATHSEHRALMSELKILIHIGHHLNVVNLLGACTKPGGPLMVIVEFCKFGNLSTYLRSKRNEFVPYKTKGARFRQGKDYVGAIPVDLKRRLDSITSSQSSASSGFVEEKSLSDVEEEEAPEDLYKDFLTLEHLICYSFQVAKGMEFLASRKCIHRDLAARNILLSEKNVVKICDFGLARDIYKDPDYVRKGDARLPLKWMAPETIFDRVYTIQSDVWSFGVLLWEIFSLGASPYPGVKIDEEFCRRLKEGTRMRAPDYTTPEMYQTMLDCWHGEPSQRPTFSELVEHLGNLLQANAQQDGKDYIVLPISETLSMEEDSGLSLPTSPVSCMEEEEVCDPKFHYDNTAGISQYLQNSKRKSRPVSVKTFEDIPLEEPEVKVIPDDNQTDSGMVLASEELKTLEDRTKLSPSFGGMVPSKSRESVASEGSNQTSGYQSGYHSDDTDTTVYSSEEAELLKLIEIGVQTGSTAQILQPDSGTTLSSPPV
T2 sequence (P15056 416-766): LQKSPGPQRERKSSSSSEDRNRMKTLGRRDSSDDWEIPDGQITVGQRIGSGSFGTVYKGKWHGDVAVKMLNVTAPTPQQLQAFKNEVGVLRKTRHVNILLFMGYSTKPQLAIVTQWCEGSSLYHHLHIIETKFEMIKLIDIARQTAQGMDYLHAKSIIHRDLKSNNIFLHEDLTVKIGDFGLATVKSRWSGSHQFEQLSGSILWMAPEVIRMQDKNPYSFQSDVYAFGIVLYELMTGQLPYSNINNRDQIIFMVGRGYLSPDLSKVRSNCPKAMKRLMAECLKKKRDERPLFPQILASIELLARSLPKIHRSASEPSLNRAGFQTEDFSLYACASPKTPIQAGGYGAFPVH

IC50 (VEGFR2 kinase) [µM] | IC50 [1] [µM] | IC50 (PDGFRβ kinase) [µM] | SMILES
> 10 | ≤ 10 | ≤ 10 | Cn1cc(-c2cc(Oc3cccc(NC(=O)c4ccccc4Oc4ccccc4)c3)ccn2)cn1 [Example 54, N-(3-(2-(1-Methyl-1H-pyrazol-4-yl)pyridin-4-yloxy)phenyl)-2-phenoxybenzamide]
≤ 10 | > 10 | > 10 | Cn1cc(-c2cc(Oc3cccc(NC(=O)c4cccc(Oc5ccccc5)c4)c3)ccn2)cn1 [Example 55, N-(3-(2-(1-Methyl-1H-pyrazol-4-yl)pyridin-4-yloxy)phenyl)-3-phenoxybenzamide]
≤ 10 | ≤ 10 | ≤ 10 | Cn1cc(-c2cc(Oc3cccc(NC(=O)c4ccccc4-n4cccc4)c3)ccn2)cn1 [Example 57, N-(3-(2-(1-Methyl-1H-pyrazol-4-yl)pyridin-4-yloxy)phenyl)-2-(1H-pyrrol-1-yl)benzamide]
> 10 | ≤ 10 | > 10 | Cn1cc(-c2cc(Oc3cccc(NC(=O)c4ccc(-n5cccc5)cc4)c3)ccn2)cn1 [Example 59, N-(3-(2-(1-Methyl-1H-pyrazol-4-yl)pyridin-4-yloxy)phenyl)-4-(1H-pyrrol-1-yl)benzamide]
> 10 | ≤ 10 | > 10 | Cn1cc(-c2cc(Oc3cccc(NC(=O)c4ccc5c(c4)OCO5)c3)ccn2)cn1 [Example 61, N-(3-(2-(1-Methyl-1H-pyrazol-4-yl)pyridin-4-yloxy)phenyl)benzo[d][1,3]dioxole-5-carboxamide]
> 10 | > 10 | > 10 | Cn1cc(-c2cc(Oc3cccc(NC(=O)c4ccc5c(c4)OC(F)(F)O5)c3)ccn2)cn1 [Example 62, 2,2-Difluoro-N-(3-(2-(1-methyl-1H-pyrazol-4-yl)pyridin-4-yloxy)phenyl)benzo[d][1,3]dioxole-5-carboxamide]
≤ 10 | ≤ 10 | > 10 | Cn1cc(-c2cc(Oc3cccc(NC(=O)c4ccc5[nH]cnc5c4)c3)ccn2)cn1 [Example 64, N-(3-(2-(1-Methyl-1H-pyrazol-4-yl)pyridin-4-yloxy)phenyl)-1H-benzo[d]imidazole-5-carboxamide]
> 10 | > 10 | > 10 | Cn1cc(-c2cc(Oc3cccc(NC(=O)c4ccc5occc5c4)c3)ccn2)cn1 [Example 66, N-(3-(2-(1-Methyl-1H-pyrazol-4-yl)pyridin-4-yloxy)phenyl)benzofuran-5-carboxamide]
> 10 | > 10 | > 10 | Cn1cc(-c2cc(Oc3cccc(NC(=O)c4ccc5c(c4)CCO5)c3)ccn2)cn1 [Example 67, N-(3-(2-(1-Methyl-1H-pyrazol-4-yl)pyridin-4-yloxy)phenyl)-2,3-dihydrobenzofuran-5-carboxamide]
> 10 | ≤ 10 | > 10 | Cn1cc(-c2cc(Oc3cccc(NC(=O)c4cccc5c4OCC5)c3)ccn2)cn1 [Example 68, N-(3-(2-(1-Methyl-1H-pyrazol-4-yl)pyridin-4-yloxy)phenyl)-2,3-dihydrobenzofuran-7-carboxamide]
≤ 10 | ≤ 10 | > 10 | Cn1cc(-c2cc(Oc3cccc(NC(=O)c4cccc5[nH]ccc45)c3)ccn2)cn1 [Example 69, N-(3-(2-(1-Methyl-1H-pyrazol-4-yl)pyridin-4-yloxy)phenyl)-1H-indole-4-carboxamide]
≤ 10 | ≤ 10 | ≤ 10 | CCOc1cccc(C(=O)Nc2cccc(Oc3ccnc(-c4cnn(C)c4)c3)c2)c1 [Example 72, 3-Ethoxy-N-(3-(2-(1-methyl-1H-pyrazol-4-yl)pyridin-4-yloxy)phenyl)benzamide]
> 10 | ≤ 10 | > 10 | CC(C)Oc1ccc(C(=O)Nc2cccc(Oc3ccnc(-c4cnn(C)c4)c3)c2)cc1 [Example 75, 4-Isopropoxy-N-(3-(2-(1-methyl-1H-pyrazol-4-yl)pyridin-4-yloxy)phenyl)benzamide]

More lines, now with the values behind:

SMILES | IC50 (VEGFR2 kinase) [µM] | IC50 [1] [µM] | IC50 (PDGFRβ kinase) [µM]
Cn1cc(-c2cc(Oc3cccc(NC(=O)c4ccc(Oc5ccccc5)cc4)c3)ccn2)cn1 [Example 56, N-(3-(2-(1-Methyl-1H-pyrazol-4-yl)pyridin-4-yloxy)phenyl)-4-phenoxybenzamide] | ≤ 10 | ≤ 10 | > 10
Cn1cc(-c2cc(Oc3cccc(NC(=O)c4cccc(-n5cccc5)c4)c3)ccn2)cn1 [Example 58, N-(3-(2-(1-Methyl-1H-pyrazol-4-yl)pyridin-4-yloxy)phenyl)-3-(1H-pyrrol-1-yl)benzamide] | > 10 | > 10 | > 10
Cn1cc(-c2cc(Oc3cccc(NC(=O)c4ccc(-n5ccnc5)cc4)c3)ccn2)cn1 [Example 60, 4-(1H-Imidazol-1-yl)-N-(3-(2-(1-methyl-1H-pyrazol-4-yl)pyridin-4-yloxy)phenyl)benzamide] | > 10 | ≤ 10 | > 10
Cn1cc(-c2cc(Oc3cccc(NC(=O)c4ccc5c(c4)C(=O)OC5=O)c3)ccn2)cn1 [Example 63, N-(3-(2-(1-Methyl-1H-pyrazol-4-yl)pyridin-4-yloxy)phenyl)-1,3-dioxo-1,3-dihydroisobenzofuran-5-carboxamide] | > 10 | ≤ 10 | ≤ 10
Cn1cc(-c2cc(Oc3cccc(NC(=O)c4ccc5[nH]nnc5c4)c3)ccn2)cn1 [Example 65, N-(3-(2-(1-Methyl-1H-pyrazol-4-yl)pyridin-4-yloxy)phenyl)-1H-benzo[d][1,2,3]triazole-5-carboxamide] | ≤ 10 | ≤ 10 | > 10
Cn1cc(-c2cc(Oc3cccc(NC(=O)c4ccc5[nH]ccc5c4)c3)ccn2)cn1 [Example 70, N-(3-(2-(1-Methyl-1H-pyrazol-4-yl)pyridin-4-yloxy)phenyl)-1H-indole-5-carboxamide] | ≤ 10 | ≤ 10 | > 10
Cn1cc(-c2cc(Oc3cccc(NC(=O)c4cccc5cc[nH]c45)c3)ccn2)cn1 [Example 71, N-(3-(2-(1-Methyl-1H-pyrazol-4-yl)pyridin-4-yloxy)phenyl)-1H-indole-7-carboxamide] | > 10 | ≤ 10 | > 10
CCCOc1cccc(C(=O)Nc2cccc(Oc3ccnc(-c4cnn(C)c4)c3)c2)c1 [Example 73, N-(3-(2-(1-Methyl-1H-pyrazol-4-yl)pyridin-4-yloxy)phenyl)-3-propoxybenzamide] | > 10 | > 10 | > 10
CCCOc1ccc(C(=O)Nc2cccc(Oc3ccnc(-c4cnn(C)c4)c3)c2)cc1 [Example 74, N-(3-(2-(1-Methyl-1H-pyrazol-4-yl)pyridin-4-yloxy)phenyl)-4-propoxybenzamide] | > 10 | ≤ 10 | > 10
CCCCOc1ccc(C(=O)Nc2cccc(Oc3ccnc(-c4cnn(C)c4)c3)c2)cc1 [Example 76, 4-Butoxy-N-(3-(2-(1-methyl-1H-pyrazol-4-yl)pyridin-4-yloxy)phenyl)benzamide] | ≤ 10 | ≤ 10 | > 10
